Measured values as given in PubChem BioAssay (NCI).
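Step 1: Grow cells in 96-well plates. Step 2: Expose to compound for 48 hours at 5 concentrations. Step 3: Interpolate endpoints linearly; if unreached, use highest concentration. GI50 marks 50% less growth. The concentration for full growth arrest is given as TGI.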

Legend:
Experiment in all cases: inhibition of tumour cell growth, NCI panel, 48 h
EKVX NSCLC = test system: EKVX NSCLC
SK-MEL-28 melanoma = test system: SK-MEL-28 melanoma
NCI-H23 lung = test system: NCI-H23 lung
RPMI-8226 leukemia = test system: RPMI-8226 leukemia
A549 NSCLC = test system: A549 NSCLC
MDA-MB-231 breast = test system: MDA-MB-231 breast
SF-295 CNS = test system: SF-295 CNS
OVCAR-4 ovarian = test system: OVCAR-4 ovarian
OVCAR-5 ovarian = test system: OVCAR-5 ovarian
NCI/ADR-RES ovarian = test system: NCI/ADR-RES ovarian
IGROV1 ovarian = test system: IGROV1 ovarian
A498 renal = test system: A498 renal
UACC-257 melanoma = test system: UACC-257 melanoma
NCI-H522 lung = test system: NCI-H522 lung
TK-10 renal = test system: TK-10 renal
SK-MEL-2 melanoma = test system: SK-MEL-2 melanoma
RXF 393 renal = test system: RXF 393 renal
CCRF-CEM leukemia = test system: CCRF-CEM leukemia
SK-MEL-5 melanoma = test system: SK-MEL-5 melanoma
UO-31 renal = test system: UO-31 renal
SF-539 CNS = test system: SF-539 CNS
MALME-3M melanoma = test system: MALME-3M melanoma
MCF7 breast = test system: MCF7 breast
HT29 colon = test system: HT29 colon
SNB-75 CNS = test system: SNB-75 CNS
OVCAR-3 ovarian = test system: OVCAR-3 ovarian
K-562 leukemia = test system: K-562 leukemia
BT-549 breast = test system: BT-549 breast
HOP-62 NSCLC = test system: HOP-62 NSCLC
HCT-116 colon = test system: HCT-116 colon
HL-60(TB) leukemia = test system: HL-60(TB) leukemia
U251 CNS = test system: U251 CNS
MDA-MB-435 = test system: MDA-MB-435
HOP-92 NSCLC = test system: HOP-92 NSCLC
MOLT-4 leukemia = test system: MOLT-4 leukemia
SF-268 CNS = test system: SF-268 CNS
PC-3 prostate = test system: PC-3 prostate
NCI-H226 lung = test system: NCI-H226 lung
M14 melanoma = test system: M14 melanoma
DU-145 prostate = test system: DU-145 prostate
CAKI-1 renal = test system: CAKI-1 renal
SK-OV-3 ovarian = test system: SK-OV-3 ovarian
SW-620 colon = test system: SW-620 colon
HCT-15 colon = test system: HCT-15 colon
T-47D breast = test system: T-47D breast
COLO 205 colon = test system: COLO 205 colon
786-0 renal = test system: 786-0 renal
HS 578T breast = test system: HS 578T breast
SNB-19 CNS = test system: SNB-19 CNS
UACC-62 melanoma = test system: UACC-62 melanoma
NCI-H460 lung = test system: NCI-H460 lung
OVCAR-8 ovarian = test system: OVCAR-8 ovarian
SN12C renal = test system: SN12C renal
HCC-2998 colon = test system: HCC-2998 colon
ACHN renal = test system: ACHN renal
KM12 colon = test system: KM12 colon
SR leukemia = test system: SR leukemia

Molecule `CN1CCc2c(sc3ncnc(N/N=C/c4ccc(Cl)c(Cl)c4)c23)C1` has a GI50 (EKVX NSCLC) of 19.1 µM, a TGI (EKVX NSCLC) of 39 µM and a GI50 (SK-MEL-28 melanoma) of 13.7 µM. It also gave a TGI (SK-MEL-28 melanoma) of 29.8 µM, a GI50 (NCI-H23 lung) of 13.5 µM and a TGI (NCI-H23 lung) of 31.2 µM. It also gave a GI50 (RPMI-8226 leukemia) of 17 µM, a TGI (RPMI-8226 leukemia) of 66.4 µM and a GI50 (A549 NSCLC) of 11 µM. The TGI (A549 NSCLC) was 32.1 µM, the GI50 (MDA-MB-231 breast) was 12.4 µM and the TGI (MDA-MB-231 breast) was 26.8 µM. The GI50 (SF-295 CNS) was 13 µM, the TGI (SF-295 CNS) was 27.9 µM and the GI50 (OVCAR-4 ovarian) was 15.5 µM. It also gave a TGI (OVCAR-4 ovarian) of 30.9 µM, a GI50 (OVCAR-5 ovarian) of 15.3 µM and a TGI (OVCAR-5 ovarian) of 30.9 µM. For the same molecule, the GI50 (NCI/ADR-RES ovarian) was 14.3 µM, the TGI (NCI/ADR-RES ovarian) was 34.1 µM and the GI50 (IGROV1 ovarian) was 15.6 µM. The TGI (IGROV1 ovarian) was 31.8 µM, the GI50 (A498 renal) was 19.9 µM and the TGI (A498 renal) was 35.6 µM. It also gave a GI50 (UACC-257 melanoma) of 14.8 µM, a TGI (UACC-257 melanoma) of 30.2 µM and a GI50 (NCI-H522 lung) of 11.7 µM. For the same molecule, the TGI (NCI-H522 lung) was 28.3 µM, the GI50 (TK-10 renal) was 21.2 µM and the TGI (TK-10 renal) was 36.1 µM. The GI50 (SK-MEL-2 melanoma) was 38.4 µM, the TGI (SK-MEL-2 melanoma) was > 100 µM and the GI50 (RXF 393 renal) was 12.8 µM. For the same molecule, the TGI (RXF 393 renal) was 28.1 µM, the GI50 (CCRF-CEM leukemia) was 14 µM and the TGI (CCRF-CEM leukemia) was > 100 µM. For the same molecule, the GI50 (SK-MEL-5 melanoma) was 13.7 µM, the TGI (SK-MEL-5 melanoma) was 28.5 µM and the GI50 (UO-31 renal) was 10.1 µM. For the same molecule, the TGI (UO-31 renal) was 22.7 µM, the GI50 (SF-539 CNS) was 13.8 µM and the TGI (SF-539 CNS) was 29.8 µM. It also gave a GI50 (MALME-3M melanoma) of 14.1 µM, a TGI (MALME-3M melanoma) of 28.5 µM and a GI50 (MCF7 breast) of 3.94 µM. For the same molecule, the TGI (MCF7 breast) was 18.6 µM, the GI50 (HT29 colon) was 13.6 µM and the TGI (HT29 colon) was 29.3 µM. It also gave a GI50 (SNB-75 CNS) of 14.6 µM, a TGI (SNB-75 CNS) of 28.6 µM and a GI50 (OVCAR-3 ovarian) of 15.7 µM. For the same molecule, the TGI (OVCAR-3 ovarian) was 30.1 µM, the GI50 (K-562 leukemia) was 12.5 µM and the TGI (K-562 leukemia) was 57 µM. It also gave a GI50 (BT-549 breast) of 14 µM, a TGI (BT-549 breast) of 33 µM and a GI50 (HOP-62 NSCLC) of 10.2 µM. It also gave a TGI (HOP-62 NSCLC) of 41.4 µM, a GI50 (HCT-116 colon) of 13.7 µM and a TGI (HCT-116 colon) of 44.4 µM. For the same molecule, the GI50 (HL-60(TB) leukemia) was 2.04 µM, the TGI (HL-60(TB) leukemia) was 4.83 µM and the GI50 (U251 CNS) was 17.1 µM. It also gave a TGI (U251 CNS) of 35.8 µM, a GI50 (MDA-MB-435) of 18.2 µM and a TGI (MDA-MB-435) of 34.4 µM. For the same molecule, the GI50 (HOP-92 NSCLC) was 7.63 µM, the TGI (HOP-92 NSCLC) was 34.3 µM and the GI50 (MOLT-4 leukemia) was 11.9 µM. The TGI (MOLT-4 leukemia) was 43.6 µM, the GI50 (SF-268 CNS) was 16.5 µM and the TGI (SF-268 CNS) was 39.4 µM. It also gave a GI50 (PC-3 prostate) of 18.1 µM, a TGI (PC-3 prostate) of 43.9 µM and a GI50 (NCI-H226 lung) of 77.9 µM. For the same molecule, the TGI (NCI-H226 lung) was > 100 µM, the GI50 (M14 melanoma) was 17.6 µM and the TGI (M14 melanoma) was 43.8 µM. It also gave a GI50 (DU-145 prostate) of 14.5 µM, a TGI (DU-145 prostate) of 28.5 µM and a GI50 (CAKI-1 renal) of 15.2 µM. The TGI (CAKI-1 renal) was 29.1 µM, the GI50 (SK-OV-3 ovarian) was 17.1 µM and the TGI (SK-OV-3 ovarian) was 34.8 µM. For the same molecule, the GI50 (SW-620 colon) was 12.1 µM, the TGI (SW-620 colon) was 29.8 µM and the GI50 (HCT-15 colon) was 6.61 µM. For the same molecule, the TGI (HCT-15 colon) was 22.2 µM, the GI50 (T-47D breast) was 19.9 µM and the TGI (T-47D breast) was 49.9 µM. For the same molecule, the GI50 (COLO 205 colon) was 10.6 µM, the TGI (COLO 205 colon) was 27.5 µM and the GI50 (786-0 renal) was 12.4 µM. It also gave a TGI (786-0 renal) of 32.1 µM, a GI50 (HS 578T breast) of 22.1 µM and a TGI (HS 578T breast) of 65.8 µM. For the same molecule, the GI50 (SNB-19 CNS) was 15.4 µM, the TGI (SNB-19 CNS) was 35.6 µM and the GI50 (UACC-62 melanoma) was 14.9 µM. It also gave a TGI (UACC-62 melanoma) of 29.6 µM, a GI50 (NCI-H460 lung) of 16.4 µM and a TGI (NCI-H460 lung) of 34.7 µM. The GI50 (OVCAR-8 ovarian) was 14.1 µM, the TGI (OVCAR-8 ovarian) was 39.7 µM and the GI50 (SN12C renal) was 11.5 µM. The TGI (SN12C renal) was 26.3 µM, the GI50 (HCC-2998 colon) was 9.8 µM and the TGI (HCC-2998 colon) was 25.7 µM. For the same molecule, the GI50 (ACHN renal) was 15.1 µM, the TGI (ACHN renal) was 31.5 µM and the GI50 (KM12 colon) was 17.9 µM. For the same molecule, the TGI (KM12 colon) was 34 µM, the GI50 (SR leukemia) was 2.52 µM and the TGI (SR leukemia) was 8.04 µM.
